Reference: patent US20030176470A1, “Topical composition containing at least one aryl oxime, and method for the preparation thereof” (priority 2000, published 2003)

Legend:
[1] = stability of ethanolic solutions of the active agent; format: physicochemical
Source text: During investigations regarding the solubility of, in particular, 2-hydroxy-5-methyl-laurophenone oxime, solutions could be prepared which are stable after 4 days at room temperature under the exclusion of UV light. These solutions were ethanolic solutions of the active agent which included further components such as 0.8/1.0 and 2.0% PEG600 or PEG6000. The active agent was present in these solutions in an amount of 10 wt. %. […] These solutions can be incorporated into water in order to prepare topical formulations.

[2] = solubility in different solvents; format: physicochemical; details: in solvents such as isopropanol, acetone, chloroform, 2-phenylethanol and Triton-X100
Experimental: Numerous studies were conducted in order to obtain optimum compositions of the active agent in which an improvement of solubility and, a prevention of the formation of crystals is achieved. […] Therefore, the carriers must be non-toxic, non-carcinogenic and skin compatible and, furthermore, should be odour neutral. Moreover, these carriers, e.g. solvents or emulsifiers, should be compatible with the major part of the topical composition, i.e. an aqueous phase or an oil phase, and should not form a separate phase or lead to the precipitation of the active agent.

formation of crystals ([1]; ethanolic PEG solutions, amount of active agent increased above 10 wt. %): formation of crystals was observed
stability of solution ([1]; ethanolic solutions with 0.8/1.0 and 2.0% PEG600 or PEG6000, active agent 10 wt. %, 4 days at room temperature under exclusion of UV light): stable
formation of crystals ([1]; solution of the active agent incorporated into water at 10 to 20 wt. % of the formulation): in some cases the formation of crystals
solubility [2]: good solubility
Substance: 2-hydroxy-5-methyl-laurophenone oxime
